# Source: article PMC8915624 (Antiviral Research, 2022)
# Read-outs that look alike come from different tables or passages of the source.
# Tests used:
# [1] = system: SARS-CoV-2; assay type: cell-based; conditions: Vero-E6/SARS-CoV-2; MOI 0.1, 72 hpi, real-time RT-PCR
# [2] = system: MRC-5 cells; test: Cell viability assay; assay type: cell-based, Human; conditions: for CC50: MRC-5 cells, MTT, 72 h
# [3] = system: HCoV-OC43; assay type: cell-based; conditions: for IC50: MRC-5/OC43, MOI 0.1, 72 hpi, viral genome copies by real-time RT-PCR; for relative viral genome copy number in cell lysates and supernatants: 20 μM
# [4] = system: HCoV-OC43; assay type: cell-based; conditions: Vero-E6/OC43; MOI 0.1, 72 hpi, real-time RT-PCR
# [5] = system: Vero-E6 cells; test: Cell viability assay; assay type: cell-based, African green monkey; conditions: MTT, 72 h
# [6] = system: SARS-CoV-2 NP protein; assay type: cell-based
# [7] = system: SARS-CoV-2; assay type: cell-based
# [8] = system: HCoV-OC43; assay type: cell-based; conditions: MRC-5, 72 hpi; 20 μM
# [9] = system: HCoV-OC43 NP; assay type: cell-based; conditions: MRC-5, MOI 1; 20 μM
molecule,measurement,setting,value
NC(=O)[C@H](CCCN=C(N)CCl)NC(=O)c1ccccc1 [Cl-amidine],IC50,[1],95.2 µM
same,CC50,[2],949 µM
same,intra- and extra-cellular viral genome copy numbers,"[3]; MRC-5, MOI 0.1, Cl-A 100 μM, BB-Cl 2.5 μM",drastically reduced
same,IC50,[3],34.8 µM
same,IC50,[4],44.1 µM
same,CC50,[5],> 1000 µM
same,reduction of SARS-CoV-2 NP protein expression,[6],~50%
same,reduction in SARS-CoV-2 yield (plaque assay),[7],1 log
AFM30a,reduction of the viral titer (plaque assay),[8],barely detectable
same,CC50,[2],321 µM
same,inhibition of HCoV-OC43 replication rate (maximum within the range of concentrations tested),"[3]; MRC-5, MOI 0.1, 72 hpi",≤ 40%
same,relative viral genome copy number in cell lysates and supernatants,"[3]; MRC-5, MOI 0.1",much less pronounced reduction
same,IC50,[3],> 20 µM
same,OC43 NP protein expression levels (Western blot),[9],slight decrease
GSK199,reduction of the viral titer (plaque assay),[8],~2 log
same,cell viability,"[2]; MRC-5, 20 μM",viable
same,CC50,[2],133 µM
same,viral replication (viral genome production),"[3]; MRC-5, 20 μM",complete blockade of viral replication
same,relative viral genome copy number in cell lysates and supernatants,"[3]; MRC-5, MOI 0.1",drastically reduced
same,IC50,[3],0.6 µM
same,OC43 NP protein expression levels (Western blot),[9],dramatic downregulation
